Values quoted from earlier work in patent US6521209B1, “Bifunctional detection agents” (California Institute of Technology, priority 1996, dated 2003).

Settings: for stability constant (K), formation constant, logK: Gd(III) complex

| stability constant (K), formation constant, logK | dissociation kinetics (at physiological pH) | Structure (SMILES) |
| --- | --- | --- |
| 28.5 | very slow dissociation kinetics | O=C([O-])CN1CCN(CC(=O)[O-])CCN(CC(=O)O)CCN(CC(=O)[O-])CC1.[Gd+3] [Gd-DOTA] |
| 22.4 | – | O=C([O-])CN(CCN(CC(=O)[O-])CC(=O)O)CCN(CC(=O)[O-])CC(=O)O.[Gd+3] [Gd(DTPA)] |
